Consider one compound from patent US6106864A, “Pharmaceutical formulations containing darifenacin” (Pfizer Inc., priority 1995, dated 2000).

This assay has as its system muscarinic M3 receptors over M1 receptors. As to the kind of experiment: Selectivity for muscarinic M3 receptors over M1 receptors. The following applies: metabolite compared with darifenacin; "It appears".

Consider `NC(=O)C(c1ccccc1)(c1ccccc1)[C@@H]1CCN(CCc2ccc3c(c2)C(O)CO3)C1` (stereo partly shown) [metabolite], for which the “less selective for muscarinic M3 receptors over M1 receptors in comparison with darifenacin” value stood at 6 fold.
